One data set deals with CHO cell line. As to the kind of experiment: Cytotoxic assay, CHO. The data set is classed as cell-based. From the text:
In some embodiments, the complexes of the present invention are useful for treating various cancers. […] The complexes of the present invention are particularly desirable because they may have reduced toxicity in vivo.

The subject of another data set is DNA of A2780 cells. As to the kind of experiment: DNA-bound platinum in cells by atomic absorption. The data set is classed as cell-based, human. The note with it: up to 50 micromolar, treated up to 24 hours. Here is the method: For DNA-Pt measurements, 1.0×10^7 cells were seeded in T75 cm^2 flasks. After 24 hr, the platinum complexes were added at the different concentrations 0, 10, 20, 30 and 50 μM. Cells were treated with the platinum complexes for 24 hours. Following treatment, the medium was removed and cells were washed with ice-cold PBS. The cells were trypsinized and centrifuged into a pellet. DNA was extracted using a Wizard® SV DNA purification kit (Promega). The DNA was quantitatively estimated from the absorption at 260 nm using a NanoDrop UV-Vis instrument.

The test system of data set [1] is UMSCC10b/15s (Cisplatin-resistant) cells. Briefly: Cytotoxicity in head and neck cancer cells, cisplatin-resistant. The data set is classed as cell-based, human. As to the method:
(§1) The UMSCC10b (Cisplatin-sensitive) and UMSCC10b/15s (Cisplatin-resistant) cell lines derived from human head and neck squamous cell cancer were lines were obtained from Dr. Stephen B. Howell of the University of California, Dan Diego. Cells were cultured in 1640 RPMI with 10% fetal bovine serum, 100 units/ml penicillin and 100 μg/m1 of streptomycin. Cells were seeded into 24-well plates with approximately 20,000 cells/500 μl of media in each well plate. Cells were exposed to dach-2 with variable concentrations ranging from 1.12 μM to maximum of 72 μM. Stock solutions of dach-2 complex were prepared and aliquots of these solutions were added to make those effective concentrations. Cells were then allowed to grow for 72 hours. Twelve different concentrations were used in this study. Each concentration had one control for a total of 12 controls.

The nature of data set [2]: pKa from 31P chemical shift as a function of pH. The data set is classed as physicochemical.
Data set [3] relates to calf-thymus DNA, oligonucleotide, dGpG, 5'-dGMP and 5'-dAMP. Briefly: Platinum binding to DNA and nucleotides by NMR. The note with it: 1H NMR, up to seven days. Here is the method: (§2) In the associated experiment, dach-2 was allowed to react with double-stranded calf-thymus DNA, a synthetic oligonucleotide (5′-[…]-3′; SEQ ID NO:1), a dinucleotide (dGpG), and nucleotide monophosphates (5′-dGMP and 5′-dAMP) at concentrations as much as 250-times higher than those of cellular doses. The extent of DNA binding was monitored by ^1H NMR spectroscopy. In parallel, similar reactions with cisplatin were conducted under identical conditions.
(§3) Proton NMR spectroscopic experiments were conducted on a Bruker 500 MHz NMR instrument in 99% (atom) D2O with a water suppression pulse sequence. Samples contained cisplatin (2.0 mM) or pyrodach-2 (2.0 mM) and nucleotides (5′-dGMP, 5′-dAMP, dGpG (5.0 mM)), and, single- and double stranded DNA (calf thymus, 5.0 mM) at pH 7.0 maintained by phosphate and carbonate buffers (10-20 mM). Reactions of cisplatin (0.25 mM) and pyrodach-2 (0.25 mM) with a synthetic 25-mer: 5′-[…]-3′ (SEQ ID NO: 1) (0.25 mM) were also performed under identical conditions. Reactions were carried out up to 7 days, and ^1H and ^31P NMR spectra were recorded at regular time intervals. Usually, a pulse width of 5 μs with a 1.0 s repetition delay was used for the measurements. Typically, a sweepwidth of 10,000 Hz and 32 K data points were selected to collect the Free Induction Decays. A line broadening factor of 1 Hz was for applied Fourier transformation. […]

Data set [4] deals with synthetic 25-mer oligonucleotide (SEQ ID NO:1). Briefly: Platinum-DNA binding by NMR, 25-mer oligonucleotide. The note with it: 1H NMR, identical conditions for both complexes. As to the method:
as §2, §3

Data set [5] has as its system UMSCC10b (Cisplatin-sensitive) cells. Briefly: Cytotoxicity in head and neck cancer cells, cisplatin-sensitive. It counts as cell-based, human. Here is the method:
as §1

For data set [6], the system named is A2780 human ovarian cancer cells. Briefly: Clonogenic assay, A2780. The note with it: 1 hour drug treatment, 1 week colony formation, read-out: IC50 A780. The data set is classed as cell-based. As to the method: Human ovarian cancer cells, A2780, were obtained from Dr. Thomas Hamilton (Fox Chase Cancer Center, Philadelphia, Pa.). Cells were cultured on monolayer using RPMI 1640 supplemented with 10% fetal bovine serum, 2 mM glutamine, 0.25 units/mL insulin and penicillin/streptomycin in a 37 degrees C. incubator continuously gassed with 5% CO2. Cells were subcultured using 0.0625% trypsin in HBSS to maintain cells in exponential growth.
IC50 values were determined using a clonogenic assay. Briefly, 500 A2780 cells from a single cell suspension were plated onto 60mm Petri plates 24 hours before drug treatment to permit cell attachment. On the day of drug treatment, the medium was decanted and replaced with the drug and these treated cells were placed back into the 37 degrees C. incubator for 1 hour. Triplicate plates were set up for each drug concentration. After the 1 hour drug treatment, the drug containing medium was decanted and replaced with fresh medium. These plates were returned to the 37 degrees C. incubator for 1 week for colony formation. Colonies were fixed and stained using 2% crystal violet in absolute methanol. Colonies containing more than 50 cells were scored. The number of scored colonies from the triplicate plates was averaged and this number was divided by the number of cells plated to obtain a value for the fraction of cells forming colonies. These values for fraction of cells forming colonies were then corrected for plating efficiency by dividing it by the number of cells forming colonies in plates that were not treated with drug.

Setting [7] is: calculated from phosphorus-31 chemical shifts.

Each structure is given as a SMILES string. Like-named read-outs stand apart in the source and are kept apart here.

Take `NC1CCCCC1N.O=P([O-])(O)OP(=O)([O-])O.[Pt+2]` [dach-2, (Trans-1,2-cyclohexanediamine)(dihydrogenpyrophosphato)platinum(II)]: the IC50 with CHO cell line was 35 ± 5 µM; in data set [1] (72 hours growth, read-out: IC50 for UMSCC10b/15s (Cisplatin-resistant)) it was 5 µM; in data set [1] (FIG. 9 legend, read-out: IC50 cisplatin-resistant head and neck cancer cells), under 5 µM; in data set [5] (72 hours growth, estimated, read-out: IC50 for UMSCC10b (Cisplatin-sensitive)), under 1 µM; in data set [5] (FIG. 9 legend, read-out: IC50 cisplatin-sensitive head and neck cancer cells), under 1 µM; in data set [6], 20 ± 4 µM. For the same compound, the DNA-bound platinum result in the data set with DNA of A2780 cells is listed as “No DNA-bound platinum was detected”. The pKa1 in data set [2] (setting [7]) is recorded as 2.6 ± 0.2. The pKa2 in data set [2] (setting [7]) is 4.4 ± 0.2. Also, the “pKa1 (value in parentheses)” value in data set [2] (second value printed in parentheses under pKa1, not explained) was “(3.3 ± 0.1)”. For the same compound, in data set [3], the “adduct formation with nucleotides” value is “no detectable NMR signals”. Further, in data set [4], the “DNA binding, 25-mer oligonucleotide” value was “does not exhibit any measurable DNA binding”.
